Data from patent US6892140B1, “Immunogenic cancer peptides and uses thereof” (Enteron, Inc., priority 2000, dated 2005).
Ends that are not written are not given here.

Tested on: antibodies in sera from prostate cancer patients
Experiment: Prostate cancer serum test of cell surface protein peptides (Table 3)
Format: binding, human
Set-up: key: +: positive or negative reactivity between peptides representing modified peptide regions of cancer cell surface protein molecules with antibodies in sera from prostate cancer patients; −: positive or negative reactivity between peptides representing modified peptide regions of cancer cell surface protein molecules with antibodies in sera from prostate cancer patients
Settings: reactivity of peptide with antibodies in sera from prostate cancer patients
Source text: Table 3 third column illustrates the positive or negative reactivity between peptides representing modified peptide regions of cancer cell surface protein molecules with antibodies in sera from prostate cancer patients. The presence or absence in prostate cancer cells of the 41 tested molecules is shown as + or − in column four.
Sixth, employing the immunoassays disclosed herein, each biotinylated peptide is screened as an antigen against sera or other relevant biological fluids containing antibodies taken from one of the following groups: cancer patients, patients with benign lesions or inflammatory conditions, and healthy subjects. Peptides can also be screened using tumor-infiltrating lymphocytes or peripheral blood-born lymphocytes from cancer patients. Candidate peptides we consider cancer-specific or cancer-associated depend on whether they fit the following definitions.

Substance	Prostate Cancer Serum Test Result
IrNes: Tested peptide of cell surface protein integrin alpha 5 (LRNES; not fully specified)	−
qkNqt: Tested peptide of cell surface protein integrin alpha 9 (QKNQT; also: biotin label at one end, end not given here)	−
skNfs: Tested peptide of cell surface protein integrin beta 3 (SKNFS; not fully specified)	−
pdNdt: Tested peptide of cell surface protein insulin-like gf receptor (PDNDT; also: biotin label at one end)	−
vkNst: Tested peptide of cell surface protein E-Cadherin (VKNST; not fully specified)	+
dkNst: Tested peptide of cell surface protein CD38 (DKNST; not fully specified)	−
dtNrs: Tested peptide of cell surface protein erbB-2 (DTNRS; not fully specified)	+
kaNts: Tested peptide of cell surface protein integrin alpha 5 (KANTS; also: biotin label at one end)	−
rmNit: Tested peptide of cell surface protein integrin alpha 3 (RMNIT; not fully specified)	−
dkNls: Tested peptide of cell surface protein N-Cadherin (DKNLS; not fully specified)	+
sdNst: Tested peptide of cell surface protein CD53 (SDNST; not fully specified)	−
pdNqt: Tested peptide of cell surface protein integrin beta 5 (PDNQT; also: biotin label at one end)	−
trNdt: Tested peptide of cell surface protein CD66 (TRNDT; not fully specified)	−
keNdt: Tested peptide of cell surface protein protein-tyrosine phosphatase kappa (KENDT; also: biotin label at one end)	−
skNqs: Tested peptide of cell surface protein CD66 (SKNQS; not fully specified)	−
rcNgs: Tested peptide of cell surface protein integrin beta 5 (RCNGS; not fully specified)	−
qrNit: Tested peptide of cell surface protein integrin alpha 1 (QRNIT; not fully specified)	−
qkNss: Tested peptide of cell surface protein integrin beta 6 (QKNSS; also: biotin label at one end, end not given here)	−
spNhs: Tested peptide of cell surface protein CD44 (SPNHS; not fully specified)	−
drNgt: Tested peptide of cell surface protein CD44 (DRNGT; not fully specified)	+
pgNrt: Tested peptide of cell surface protein CD82 (PGNRT; also: biotin label at one end, end not given here)	−

Substance	Prostate Cancer Serum Test Result
evNss: Tested peptide of cell surface protein integrin beta 6 (EVNSS; not fully specified)	−
nnNNss: Tested peptide of cell surface protein CD9 (NNNNSS; also: biotin label at one end)	−
heNct: Tested peptide of cell surface protein erbB-3 (HENCT; also: biotin label, end not given here)	−
daNkt: Tested peptide of cell surface protein erbB-1 (DANKT; not fully specified)	+
vtNrs: Tested peptide of cell surface protein integrin beta I (VTNRS; not fully specified)	−
qdNkt: Tested peptide of cell surface protein integrin alpha (v) (QDNKT; also: biotin label at one end, end not given here)	+
kNvtNrs: Tested peptide of cell surface protein integrin beta I (KNVTNRS; also: biotin label at one end)	−
kdNrt: Tested peptide of cell surface protein pdgfr beta (KDNRT; also: biotin label at one end)	−
perNrt: Tested peptide of cell surface protein erbB-1 (PERNRT; also: biotin label at one end, end not given here)	−
aeNct: Tested peptide of cell surface protein erbB-4 (AENCT; not fully specified)	−
ghNes: Tested peptide of cell surface protein protein-tyrosine phosphatase kappa (GHNES; also: biotin label, end not given here)	−
mNtt: Tested peptide of cell surface protein insulin-like gf receptor	−
eeNns: Tested peptide of cell surface protein pdgfr alpha (EENNS; not fully specified)	−
deNit: Tested peptide of cell surface protein tgfr beta type II (DENIT; not fully specified)	+
ekNgs: Tested peptide of cell surface protein fgfr2 (EKNGS; not fully specified)	−
ekNdt: Tested peptide of cell surface protein integrin alpha (v) (EKNDT; not fully specified)	−
gtNkt: Tested peptide of cell surface protein CD40 (GTNKT; also: biotin label, end not given here)	+
hkNqt: Tested peptide of cell surface protein ICAM 1 (HKNQT; also: biotin label, end not given here)	−
drNht: Tested peptide of cell surface protein CD46 (DRNHT; not fully specified)	−
trNvs: Tested peptide of cell surface protein pdgfr beta (TRNVS; not fully specified)	−
